The results in this text go back to patent US7517658B2, “Methods for preparing compositions using a SNORF33 receptor” (H. Lundbeck A/S, priority 1999, dated 2009).

Assay [1] concerns the target T1, mouse SNORF33 (Mus musculus, UniProt Q923Y8).
T1 construct: expressed in transfected cells; host or cells: COS-7 (membranes)
Put plainly: [3H]-TYR binding (saturation and displacement) to mouse SNORF33 COS-7 membranes. The settings on record: mouse SNORF33, displacement of [3H]TYR. Here is the method:
(§1) [^3H]-TYR and [^3H]-T binding assays were performed essentially as described by Mallard et al. (1992), with minor modifications. Radioligand binding assays were performed by diluting membranes prepared from cells expressing the receptor (with co-expression of the rat G-protein alpha S subunit for human SNORF33) in 25 mM Gly-Gly buffer (Sigma, pH=7.4 @ 0° C.) containing 5 mM ascorbate and 10 μM pargyline (final protein concentration in assay=100-300 μg/ml). Membranes were then incubated with either [^3H]-TYR (American Radiochemicals, specific activity 60 mCi/μmole) or [^3H]-T (Amersham, specific activity 98 mCi/μmole) in the presence or absence of competing ligands on ice for 30 min in a total volume of 250 μl in 96 well microtiter plates. The bound ligand was separated from free by filtration through GF/B filters presoaked in 0.5% polyethyleneimine (PEI), using Tomtec (Wallac) or Brandel Cell Harvester vacuum filtration device. After addition of Ready Safe (Beckman) scintillation fluid, bound radioactivity was quantitated using a Trilux (Wallac) scintillation counter (approximately 20% counting efficiency of bound counts). Data was fit to non-linear curves using GraphPad Prism.
(§2) In this manner, agonist or antagonist compounds that bind to the receptor may be identified as they inhibit the binding of the labeled ligand to the membrane protein of cells expressing the said receptor. Non-specific binding was defined as the amount of radioactivity remaining after incubation of membrane protein in the presence of 10 μM of the unlabeled amine corresponding to the radioligand used. In equilibrium saturation binding assays, membrane preparations or intact cells transfected with the receptor are incubated in the presence of increasing concentrations of the labeled compound to determine the binding affinity of the labeled ligand. The binding affinities of unlabeled compounds may be determined in equilibrium competition binding assays, using a fixed concentration of labeled compound in the presence of varying concentrations of the displacing ligands.

In assay [2] the target is T2, rSNORF33 (Rattus norvegicus, UniProt Q923Y9). Briefly: [3H]-TYR binding (saturation and displacement) to rSNORF33-transfected COS-7 membranes. More on the design: expressed in transfected cells; host or cells: COS-7 (transient). To be noted: rSNORF33 in transfected COS-7 membranes; 2–4 experiments; read-out: Mean Ki ± S.D.M., displacement of [3H]-tyramine. As for the experimental part: as §1, with “Radioligand” for “[^3H]-TYR and [^3H]-T binding assays were performed essentially as described by Mallard et al. (1992), with minor modifications. Radioligand”
T2 sequence (Q923Y9 whole entry): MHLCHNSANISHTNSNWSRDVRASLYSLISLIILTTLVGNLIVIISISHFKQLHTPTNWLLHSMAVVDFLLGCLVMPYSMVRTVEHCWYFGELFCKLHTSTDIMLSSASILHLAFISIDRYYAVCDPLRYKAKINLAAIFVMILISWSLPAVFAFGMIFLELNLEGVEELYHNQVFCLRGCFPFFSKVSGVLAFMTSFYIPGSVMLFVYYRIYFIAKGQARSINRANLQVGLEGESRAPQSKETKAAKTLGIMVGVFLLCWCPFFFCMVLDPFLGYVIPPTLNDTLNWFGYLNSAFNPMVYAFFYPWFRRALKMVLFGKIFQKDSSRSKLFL
as §2

The target in assay [3] is T3, hSNORF33 (Homo sapiens, UniProt Q96RJ0).
T3 sequence (Q96RJ0 1-339): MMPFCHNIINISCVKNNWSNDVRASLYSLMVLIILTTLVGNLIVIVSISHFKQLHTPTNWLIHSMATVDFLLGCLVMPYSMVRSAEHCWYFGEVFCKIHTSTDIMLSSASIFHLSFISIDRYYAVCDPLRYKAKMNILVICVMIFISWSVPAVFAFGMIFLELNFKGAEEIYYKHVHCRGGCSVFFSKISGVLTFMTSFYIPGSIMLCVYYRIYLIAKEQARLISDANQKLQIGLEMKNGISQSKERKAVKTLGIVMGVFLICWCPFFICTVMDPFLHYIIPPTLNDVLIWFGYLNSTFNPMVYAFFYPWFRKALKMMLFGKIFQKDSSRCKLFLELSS
Put plainly: [3H]-TYR binding (saturation and displacement) to human SNORF33 COS-7 membranes. More on the design: expressed in transfected cells; host or cells: COS-7 (membranes). To be noted: for Ki: human SNORF33 in transfected COS-7 membranes. Here is the method: as §1, §2

The target in assay [4] is T1, mouse SNORF33. Put plainly: cAMP assay at mouse SNORF33. The class given is cell-based. Here is the method: (§3) The receptor-mediated stimulation or inhibition of cyclic AMP (cAMP) formation may be assayed in cells expressing the mammalian receptors. Cells are plated in 96-well plates or other vessels and preincubated in a buffer such as HEPES buffered saline (NaCl (150 mM), CaCl2 (1 mM), KCl (5 mM), glucose (10 mM)) supplemented with a phosphodiesterase inhibitor such as 5 mM theophylline, with or without protease inhibitor cocktail (For example, a typical inhibitor cocktail contains 2 μg/ml aprotinin, […] leupeptin, and 10 μg/ml phosphoramidon.) for 20 min at 37° C., in 5% CO2. Test compounds are added with or without […] forskolin and incubated for an additional 10 min at 37° C. The medium is then aspirated and the reaction stopped by the addition of 100 mM HCl or other methods. The plates are stored at 4° C. for 15 min, and the cAMP content in the stopping solution is measured by radioimmunoassay. Radioactivity may be quantified using a gamma counter equipped with data reduction software. Specific modifications may be performed to optimize the assay for the receptor or to alter the detection method of cAMP.
(§4) COS-7 cells were transiently transfected with rSNORF33 gene using the calcium phosphate method and plated in 96-well plates. 48 hours after transfection, cells were washed twice with Dulbecco's phosphate buffered saline (PBS) supplemented with 10 mM HEPES, 10 mM glucose, 5 mM theophylline and 10 μM pargyline and were incubated in the same buffer for 20 min at 37° C., in […] 5% CO2. Test compounds were added and cells were incubated for an additional 10 min at 37° C. The medium was then aspirated and the reaction stopped by the addition of 100 mM HCl. The plates were stored at −20° C. for 2-5 days. For cAMP measurement, plates were thawed and the cAMP content in each well was measured by radioimmunoassay cAMP Scintillation Proximity Assay (Amersham Pharmacia Biotech). Radioactivity was quantified using microbeta Trilux counter (Wallac).

The target of assay [5] is T2, rSNORF33. Briefly: Intracellular cAMP release in rSNORF33-transfected COS-7 cells. Format: cell-based. Set-up: expressed in transfected cells; host or cells: COS-7 (transient). As for the experimental part: as §3, §4
Assay [6] concerns the target T3, hSNORF33. Briefly: Intracellular cAMP release in human SNORF33-transfected COS-7 cells. Set-up: expressed in transfected cells; host or cells: COS-7 (transient). The class given is cell-based. As for the experimental part: as §3, §4
Where [7] appears, read: read-out: Ki, displacement of [3H]-tyramine.

Each structure is given as a SMILES string. Where “and” joins values, the source holds several entries; their conditions need not be identical. Identical values can stand only once. Like-named read-outs stand apart in the source and are kept apart here. A value given as a limit tells only on which side of the number the result lay.

T1 sequence (Q923Y8 whole entry): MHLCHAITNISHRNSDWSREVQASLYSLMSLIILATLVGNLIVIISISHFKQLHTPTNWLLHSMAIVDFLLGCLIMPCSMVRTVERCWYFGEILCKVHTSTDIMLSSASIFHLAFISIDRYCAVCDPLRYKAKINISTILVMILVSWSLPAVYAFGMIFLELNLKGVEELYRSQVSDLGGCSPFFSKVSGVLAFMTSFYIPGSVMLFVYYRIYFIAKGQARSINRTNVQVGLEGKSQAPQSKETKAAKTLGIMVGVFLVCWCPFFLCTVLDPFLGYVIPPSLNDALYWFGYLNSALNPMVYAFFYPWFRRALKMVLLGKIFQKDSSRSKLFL

As to `Cl.Cl.Clc1cccc(N2CCNCC2)c1` [m-CPP, 1-(3-chlorophenyl)piperazine dihydrochloride], the Ki is 3550 nM in assay [1] (n=2, read-out: Average Ki); 83 nM in assay [2]; over 10000 nM in assay [3] (setting [7]). Moreover, the “Displacement of [3H]TYR binding” value in assay [3] (human SNORF33, up to 10 μM) is recorded as “no displacement”.

In the case of `C1CNCCN1` [piperazine], the Ki in assay [1] (n=2, read-out: Average Ki) is 1950 nM; in assay [2] it was 82 nM; in assay [3] (setting [7]) it was over 10000 nM.

On to `NCCc1ccccc1` [β-Phenylethylamine (PEA), β-Phenylethylamine], for which the Ki was 19 nM and 47 nM in assay [1] (read-out: Ki (individual determinations)); 56 ± 21 nM in assay [2]; 8 ± 6 nM in assay [3] (read-out: Mean Ki ± S.D.M., displacement of [3H]-tyramine). In addition, the “Agonism in the cAMP assay” value in assay [4] is on record as “full agonists”. The EC50 is 10 ± 1 nM in assay [5] and 216 ± 149 nM in assay [6].
